Experimental data: publication PMC5524571 (Molecular cell, 2012)

Legend:
[1] = target: T1, MdfA (Escherichia coli, UniProt P0AEY8); details: several pH values (pH 6 to 8.5)
[2] = target: T1, MdfA; assay: substrate-induced proton release from purified MdfA; assay type: binding; details: unbuffered solution, 2 µM MdfA, 500 µM EtBr
[3] = target: Asp34 (UniProt position 34, TYIGNDMIQPG); assay: fluorescence; details: Detergent-solubilised, folded; competition between TPP and protons

T1 sequence (P0AEY8 whole entry): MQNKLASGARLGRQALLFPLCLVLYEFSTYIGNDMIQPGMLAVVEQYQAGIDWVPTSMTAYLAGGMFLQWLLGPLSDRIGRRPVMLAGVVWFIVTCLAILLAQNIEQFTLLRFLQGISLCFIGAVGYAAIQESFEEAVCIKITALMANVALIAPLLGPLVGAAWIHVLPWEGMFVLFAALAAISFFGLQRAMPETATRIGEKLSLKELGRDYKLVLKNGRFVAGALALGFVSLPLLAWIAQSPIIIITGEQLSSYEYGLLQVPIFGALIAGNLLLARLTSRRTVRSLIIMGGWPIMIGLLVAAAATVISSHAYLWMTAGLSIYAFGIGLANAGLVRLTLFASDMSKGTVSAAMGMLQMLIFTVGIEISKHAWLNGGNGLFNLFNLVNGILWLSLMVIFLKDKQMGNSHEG

## c1ccc([P+](c2ccccc2)(c2ccccc2)c2ccccc2)cc1 [TPP]
[1]
  dissociation constant: the affinity of purified, detergent-solubilized MdfA for its substrate tetraphenylphosphonium (TPP) was measured

## CC[n+]1c(-c2ccccc2)c2cc(N)ccc2c2ccc(N)cc21 [ethidium bromide]
[2]
  substrate-induced proton release from purified MdfA (pH electrode): adding TPP or EtBr caused rapid acidification

## Multidrug transporter MdfA (wild type, His6-tagged) (Escherichia coli)
[3]
  pKa: 6.84 ± 0.06
